Target: Human Factor D (Homo sapiens (Human), UniProt P00746)
Assay: Human Factor D Assay
Assay type: biochemical
Settings: not given
In short: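 Thioesterase activity monitored with Z-L-Lys-SBzl plus Ellman's reagent (DTNB), each 100 μM final, after 5 min room-temperature compound preincubation of 80 nM human serum Factor D in pH 7.5 Tris (50 mM)/1M NaCl.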

Human Factor D, sequence (P00746 26-253): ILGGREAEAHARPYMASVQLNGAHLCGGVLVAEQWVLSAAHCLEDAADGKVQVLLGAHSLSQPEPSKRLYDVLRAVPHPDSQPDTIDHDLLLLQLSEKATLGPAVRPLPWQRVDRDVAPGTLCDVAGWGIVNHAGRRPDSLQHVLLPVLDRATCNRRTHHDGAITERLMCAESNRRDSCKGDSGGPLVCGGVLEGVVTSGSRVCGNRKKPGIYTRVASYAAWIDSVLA

SMILES	IC50
Cc1cccc(NC(=O)[C@@H]2[C@H]3CC[C@H](C3)N2C(=O)Cn2cc(C(N)=O)c3cc(-c4n[nH]c5ccsc45)ccc32)n1 [Compound 704, 1-(2-((1R,3S,4S)-3-((6-Methylpyridin-2-yl)carbamoyl)-2-azabicyclo[2.2.1]heptan-2-yl)-2-oxoethyl)-5-(1H-thieno[3,2-c]pyrazol-3-yl)-1H-indole-3-carboxamide]	> 10000 nM

Same assay, conditions: Human Factor D, Table 3; read-out: IC50

SMILES	IC50
CC(=O)c1nn(CC(=O)N2CC[C@H]2C(=O)Nc2cccc(C)n2)c2ccc(-c3cnc4n3CCCC4)cc12 [Compound 705, (S)-1-(2-(3-Acetyl-5-(5,6,7,8-tetrahydroimidazo[1,2-a]pyridin-3-yl)-1H-indazol-1-yl)acetyl)-N-(6-methylpyridin-2-yl)azetidine-2-carboxamide]	> 10000 nM
CC(=O)c1nn(CC(=O)N2C[C@H](F)C[C@H]2C(=O)Nc2cccc(Br)n2)c2ccc(-c3cnn(C4CC4)c3)cc12 [Compound 706, (2S,4R)-1-(2-(3-Acetyl-5-(1-cyclopropyl-1H-pyrazol-4-yl)-1H-indazol-1-yl)acetyl)-N-(6-bromopyridin-2-yl)-4-fluoropyrrolidine-2-carboxamide]	< 1000 nM
CC(=O)c1nn(CC(=O)N2C[C@H](F)C[C@H]2C(=O)Nc2cccc(Br)n2)c2ccc(-c3cn[nH]c3)cc12 [Compound 707, (2S,4R)-1-(2-(3-acetyl-5-(1H-pyrazol-4-yl)-1H-indazol-1-yl)acetyl)-N-(6-bromopyridin-2-yl)-4-fluoropyrrolidine-2-carboxamide]	< 1000 nM
CC(=O)c1nn(CC(=O)N2CCC[C@H]2C(=O)Nc2cccc(C)n2)c2ccc(-c3cnc4ncccn34)cc12 [Compound 708, (S)-1-(2-(3-Acetyl-5-(imidazo[1,2-a]pyrimidin-3-yl)-1H-indazol-1-yl)acetyl)-N-(6-methylpyridin-2-yl)pyrrolidine-2-carboxamide]	< 1000 nM
CC(=O)c1nn(CC(=O)N2CC[C@H]2C(=O)Nc2cccc(C)n2)c2ccc(-c3cnc4ncccn34)cc12 [Compound 709, (S)-1-(2-(3-Acetyl-5-(imidazo[1,2-a]pyrimidin-3-yl)-1H-indazol-1-yl)acetyl)-N-(6-methylpyridin-2-yl)azetidine-2-carboxamide]	< 1000 nM
CC(=O)n1cc(CC(=O)N2C[C@H](F)C[C@H]2C(=O)Nc2cccc(-c3ccccc3Cl)c2F)c2ccc(-c3cnc(C)nc3)cc21 [Compound 710, (2S,4R)-1-(2-(1-Acetyl-6-(2-methylpyrimidin-5-yl)-1H-indol-3-yl)acetyl)-N-(2′-chloro-2-fluoro-[1,1′-biphenyl]-3-yl)-4-fluoropyrrolidine-2-carboxamide]	< 1000 nM
CC(=O)n1cc(CC(=O)N2C[C@H](F)C[C@H]2C(=O)Nc2cccc(Br)n2)c2ccc(-c3cnc(C)nc3)cc21 [Compound 711, (2S,4R)-1-(2-(1-Acetyl-6-(2-methylpyrimidin-5-yl)-1H-indol-3-yl)acetyl)-N-(6-bromopyridin-2-yl)-4-fluoropyrrolidine-2-carboxamide]	< 1000 nM
Cc1cccc(NC(=O)[C@@H]2C[C@@H](F)CN2C(=O)Cn2nc(C(N)=O)c3sc(-c4cnc5cc(C)nn5c4)nc32)n1 [Compound 714, 1-(2-((2S,4R)-4-Fluoro-2-(6-methylpyridin-2-ylcarbamoyl)pyrrolidin-1-yl)-2-oxoethyl)-5-(2-methylpyrazolo[1,5-a]pyrimidin-6-yl)-1H-pyrazolo[3,4-d]thiazole-3-carboxamide]	> 10000 nM
Cc1cccc(NC(=O)[C@@H]2C[C@@H](F)CN2C(=O)Cn2nc(C(N)=O)c3sc(-c4cnc(C)nc4)nc32)n1 [Compound 715, 1-(2-((2S,4R)-4-Fluoro-2-(6-methylpyridin-2-ylcarbamoyl)pyrrolidin-1-yl)-2-oxoethyl)-5-(2-methylpyrimidin-5-yl)-1H-pyrazolo[3,4-d]thiazole-3-carboxamide]	> 10000 nM
CC(=O)c1ccc(Cl)c(-c2cccc(NC(=O)[C@@H]3C[C@H]4C[C@H]4N3C(=O)Cn3nc(C(N)=O)c4sc(-c5cnc6cc(C)nn6c5)nc43)c2F)c1 [Compound 716, 1-(2-((1R,3S,5R)-3-(5′-Acetyl-2′-chloro-2-fluorobiphenyl-3-ylcarbamoyl)-2-azabicyclo[3.1.0]hexan-2-yl)-2-oxoethyl)-5-(2-methylpyrazolo[1,5-a]pyrimidin-6-yl)-1H-pyrazolo[3,4-d]thiazole-3-carboxamide]	< 1000 nM
CC(=O)c1ccc(Cl)c(-c2cccc(NC(=O)[C@@H]3C[C@H]4C[C@H]4N3C(=O)Cn3nc(C(N)=O)c4sc(-c5cnc(C)nc5)nc43)c2F)c1 [Compound 717, 1-(2-((1R,3S,5R)-3-(5′-Acetyl-2′-chloro-2-fluorobiphenyl-3-ylcarbamoyl)-2-azabicyclo[3.1.0]hexan-2-yl)-2-oxoethyl)-5-(2-methylpyrimidin-5-yl)-1H-pyrazolo[3,4-d]thiazole-3-carboxamide]	< 1000 nM
CC(=O)c1nn(CC(=O)N2C[C@H](F)C[C@H]2C(=O)Nc2cccc(Br)n2)c2cc(C(=O)N(C)C)c(-c3cnc(C)nc3)cc12 [Compound 722, 3-Acetyl-1-(2-((2S,4R)-2-((6-bromopyridin-2-yl)carbamoyl)-4-fluoropyrrolidin-1-yl)-2-oxoethyl)-N,N-dimethyl-5-(2-methylpyrimidin-5-yl)-1H-indazole-6-carboxamide]	< 1000 nM
CNc1ncc2cc(-c3cn(CC(=O)N4C[C@H](F)C[C@H]4C(=O)Nc4cccc(Br)n4)nc3C(N)=O)ccc2n1 [Compound 723, 1-(2-((2S,4R)-2-((6-Bromopyridin-2-yl)carbamoyl)-4-fluoropyrrolidin-1-yl)-2-oxoethyl)-4-(2-(methylamino)quinazolin-6-yl)-1H-pyrazole-3-carboxamide]	> 10000 nM
NC(=O)c1nn(CC(=O)N2C[C@H](F)C[C@H]2C(=O)Nc2cccc(Br)n2)cc1-c1cnn(C2CC2)c1 [Compound 726, 1-(2-((2S,4R)-2-((6-Bromopyridin-2-yl)carbamoyl)-4-fluoropyrrolidin-1-yl)-2-oxoethyl)-1′-cyclopropyl-1H,1′H-[4,4′-bipyrazole]-3-carboxamide]	> 10000 nM
CC(=O)N1CC=C(c2cn(CC(=O)N3C[C@H](F)C[C@H]3C(=O)Nc3cccc(Br)n3)nc2C(N)=O)CC1 [Compound 727, 4-(1-acetyl-1,2,3,6-Tetrahydropyridin-4-yl)-1-(2-((2S,4R)-2-((6-bromopyridin-2-yl)carbamoyl)-4-fluoropyrrolidin-1-yl)-2-oxoethyl)-1H-pyrazole-3-carboxamide]	> 10000 nM
NC(=O)c1nn(CC(=O)N2C[C@H](F)C[C@H]2C(=O)Nc2cccc(Br)n2)cc1-c1cnn(-c2ncc(F)cn2)c1 [Compound 729, 1-(2-((2S,4R)-2-((6-Bromopyridin-2-yl)carbamoyl)-4-fluoropyrrolidin-1-yl)-2-oxoethyl)-1′-(5-fluoropyrimidin-2-yl)-1H,1′H-[4,4′-bipyrazole]-3-carboxamide]	> 10000 nM
CC(=O)c1nn(CC(=O)N2[C@H](C)CC[C@H]2C(=O)Nc2nc(Br)ccc2C)c2ccc(-c3cnc(C)nc3)cc12 [Compound 731, (2S,5R)-1-(2-(3-Acetyl-5-(2-methylpyrimidin-5-yl)-1H-indazol-1-yl)acetyl)-N-(6-bromo-3-methylpyridin-2-yl)-5-methylpyrrolidine-2-carboxamide]	< 1000 nM

Reference: patent publication US10287301B2 (Achillion Pharmaceuticals, Inc., priority 2015, dated 2019)
